Legend:
Experiment in all cases: 2D cell proliferation assay (CellTiter-Blue)
Type in all cases: cell-based
UXF MFE-319 = conditions: 72 h; cell line UXF MFE-319; three days of treatment; read-out: IC (abs. IC50)
Procedure: (§1) Viability of the cells was analyzed by using the CellTiter-Blue® Cell Viability Assay (Promega), and was performed according to manufacturer's instructions. Briefly, cells were harvested from exponential phase cultures (Chapter 6.6), counted and plated in 96-well flat-bottom microtiter plates at a cell density of 4,000-60,000 cells/well in a volume of 140 μl per well. After a 24 hours recovery period, 10 μL cell culture medium (six control wells/plate) or culture medium with test compound were added (Chapter 6.2). The compounds were applied at five concentrations in full-log increments up to 100 μM in duplicate. Cultures were incubated at 37° C. and 5% CO2 in a humidified atmosphere for another three days. After three days of treatment, 20 μl/well CellTiter-Blue® reagent was added. Following incubation with CellTiter-Blue® reagent for up to four hours, fluorescence (FU) was measured by using the Enspire Multimode Plate Reader (excitation λ=570 nm, emission λ=600 nm). For calculations, the mean values of duplicate/sextuplicate (untreated control) data were used.
(§2) Drug effects were expressed in terms of the percentage of the fluorescence signal, obtained by comparison of the mean signal in the treated wells with the mean signal of the untreated controls (expressed by the test-versus-control value, T/C-value [%]):
(§3) IC values are reported as relative IC50 values and absolute IC50 and IC70 values. […] The absolute IC70 value gives the concentration of the test compound that achieves T/C=30%. The relative IC50 value is the concentration of test compound that gives a response half way between the top and bottom plateau of the sigmoidal concentration-response curve (inflection point of the curve). Calculation was done by 4parameter non-linear curve fit (Oncotest Data Warehouse Software).
(§4) If an IC50 or IC70 value could not be determined within the examined dose range (because a compound was either too active or lacked activity), the lowest or highest concentration studied was used for calculation of the geometric mean value.
(§5) The overall potency of a compound was determined by the geometric mean IC50/IC70 values of all individual IC50/IC70 values. In the heatmap representation of IC50 and IC70 values, the distribution of the IC50 or IC70 values obtained for a test compound in the individual cell lines is given in relation to the geometric mean […] or IC70 value, obtained over all PDX models tested. The individual IC values range from 1/32-fold geometric mean IC (corresponding to very potent compound activity or high tumor sensitivity) to 32-fold geometric mean IC (corresponding to lack of compound activity or tumor resistance). The heatmap presentation, therefore, represents an antiproliferative “fingerprint” profile of a test compound.

LIXFH HEP-3B = conditions: Homo sapiens, Hep3B, 72 h; cell line LIXFH HEP-3B; three days of treatment; read-out: IC (abs. IC50)
Procedure: as §1, §2, §3, §4, §5

LYXFNH Daudi = conditions: Homo sapiens, 72 h; cell line LYXFNH Daudi; three days of treatment; read-out: IC (abs. IC50)
Procedure: as §1, §2, §3, §4, §5

MAXFTN BT-549 = conditions: Homo sapiens, 72 h; cell line MAXFTN BT-549; three days of treatment; read-out: IC (abs. IC50)
Procedure: as §1, §2, §3, §4, §5

GXA MKN45 = conditions: Homo sapiens, MKN-45, 72 h; cell line GXA MKN45; three days of treatment; read-out: IC (abs. IC50)
Procedure: as §1, §2, §3, §4, §5

LXFA A549 = conditions: Homo sapiens, 72 h; cell line LXFA A549; three days of treatment; read-out: IC (abs. IC50)
Procedure: as §1, §2, §3, §4, §5

LEXFCL MEC-1 = conditions: Homo sapiens, MEC1, 72 h; cell line LEXFCL MEC-1; three days of treatment; read-out: IC (abs. IC50)
Procedure: as §1, §2, §3, §4, §5

MAXFTN MDA-MB-468 (ER −) = conditions: Homo sapiens, 72 h; cell line MAXFTN MDA-MB-468 (ER −); three days of treatment; read-out: IC (abs. IC50)
Procedure: as §1, §2, §3, §4, §5

MAXFLB 147D (ER +) = conditions: 72 h; cell line MAXFLB 147D (ER +); three days of treatment; read-out: IC (abs. IC50)
Procedure: as §1, §2, §3, §4, §5

MEXF WM-266-4 = conditions: Homo sapiens, 72 h; cell line MEXF WM-266-4; three days of treatment; read-out: IC (abs. IC50)
Procedure: as §1, §2, §3, §4, §5

LIXAH SNU-398 = conditions: Homo sapiens, 72 h; cell line LIXAH SNU-398; three days of treatment; read-out: IC (abs. IC50)
Procedure: as §1, §2, §3, §4, §5

CXF COLO 205 = conditions: Homo sapiens, 72 h; cell line CXF COLO 205; three days of treatment; read-out: IC (abs. IC50)
Procedure: as §1, §2, §3, §4, §5

CNXF U-87 MG = conditions: Homo sapiens, 72 h; cell line CNXF U-87 MG; three days of treatment; read-out: IC (abs. IC50)
Procedure: as §1, §2, §3, §4, §5

MMXF U-266 = conditions: Homo sapiens, 72 h; cell line MMXF U-266; three days of treatment; read-out: IC (abs. IC50)
Procedure: as §1, §2, §3, §4, §5

MAXFTN MDA-MB-453 = conditions: Homo sapiens, 72 h; cell line MAXFTN MDA-MB-453; three days of treatment; read-out: IC (abs. IC50)
Procedure: as §1, §2, §3, §4, §5

PRXF 22Rv1 = conditions: Homo sapiens, 72 h; cell line PRXF 22Rv1; three days of treatment; read-out: IC (abs. IC50)
Procedure: as §1, §2, §3, §4, §5

PRXF DU-145 = conditions: Homo sapiens, 72 h; cell line PRXF DU-145; three days of treatment; read-out: IC (abs. IC50)
Procedure: as §1, §2, §3, §4, §5

LEXFAL MOLT-4 = conditions: Homo sapiens, 72 h; cell line LEXFAL MOLT-4; three days of treatment; read-out: IC (abs. IC50)
Procedure: as §1, §2, §3, §4, §5

With `CN1CCN(c2ccc(Nc3ncc4cc(C(=O)N(C)C)n(C56CC(C5)C6)c4n3)cc2)CC1` [SPV113] the IC50 (UXF MFE-319) was 667 nM, the IC50 (LIXFH HEP-3B) was 367 nM and the IC50 (LYXFNH Daudi) was at most 10 nM. The IC50 (MAXFTN BT-549) was 713 nM, the IC50 (GXA MKN45) was 1080 nM and the IC50 (LXFA A549) was 1230 nM. For the same molecule, the IC50 (LEXFCL MEC-1) was at most 10 nM, the IC50 (MAXFTN MDA-MB-468 (ER −)) was 290 nM and the IC50 (MAXFLB 147D (ER +)) was 3470 nM. It also gave an IC50 (MEXF WM-266-4) of 3300 nM, an IC50 (LIXAH SNU-398) of 148 nM and an IC50 (CXF COLO 205) of 148 nM. For the same molecule, the IC50 (CNXF U-87 MG) was 100000 nM, the IC50 (MMXF U-266) was 655 nM and the IC50 (MAXFTN MDA-MB-453) was 177 nM. It also gave an IC50 (PRXF 22Rv1) of at most 10 nM, an IC50 (PRXF DU-145) of 253 nM and an IC50 (LEXFAL MOLT-4) of 567 nM.

Reference: patent US20220056037A1 (SPV THERAPEUTICS INC., priority 2018, published 2022)
